According to a melting point compilation (Tetko et al.; mined from patent text by program, amines drawn as free bases though some values may be those of a salt):

First: CCOC(=O)c1cc(CCC2CNc3nc(NC(=O)C(C)(C)C)nc(O)c3C2)[nH]n1 (centres undefined)
Second: CCOc1cccnc1C(=O)NCCNC(=O)OC(C)(C)C
The melting point of the first is higher: 235 to 237 °C for the first, 125 to 126 °C for the second.

Compared with CCOc1cc(-c2cc(C(F)(F)F)nc(-c3ccnc(-c4cccc(S(N)(=O)=O)c4)c3)n2)ccc1C(F)(F)F, COc1ccc(C(=O)c2ccc3nc(Cl)nc(-c4cccc(Cl)c4)c3c2)cc1 is lower in melting point: 224 °C for the first, 164 °C for the second.

First: COC(=O)CCCC#Cc1cc(Cl)ccc1NS(=O)(=O)c1cn(C)cn1
Second: COC(=O)CCCc1cc2nc(Cl)ccc2n1S(=O)(=O)c1cccc(Br)c1
The melting point of the first is lower: 76 to 79 °C for the first, 109 °C for the second.

First: CCSc1ccc(C(=O)O)c(C(F)(F)F)c1
Second: CC(C)(C)C(=O)Nc1ccc(C(F)(F)F)cc1C=O
The melting point of the first is higher: 134 °C for the first, 69 to 73 °C for the second.

First: CN(C)C1CC=C(c2c[nH]c3ccc([N+](=O)[O-])cc23)CC1 (centres undefined)
Second: C=CCNc1nc(N(CC=C)CC=C)nc2ccc([N+](=O)[O-])cc12
The melting point of the first is higher: 234 to 236 °C for the first, 167 to 168 °C for the second.

First: Cc1cc(Nc2ccc(Cl)cc2)nc(-n2cc3ccccc3n2)n1
Second: Cc1c2ccccc2nc2ccc3nc4ccccc4c(C)c3c12
The melting point of the first is higher: 225 to 227 °C for the first, 217 to 218 °C for the second.

Compared with COc1ccc2c(c1)Sc1c(cc(OC)c(OC(C)=O)c1Br)N2, CNCc1cc(=O)oc2cc(OC)ccc12 is lower in melting point: 201 to 203 °C for the first, 109 to 110 °C for the second.

First: CN1CCN(C(=O)CCOC2c3ccccc3C(=O)N2c2ccc3ccc(Cl)nc3n2)CC1 (centres undefined)
Second: CN1CCN(c2cccc(Nc3nc4c(-c5cnn(-c6ccc(F)cc6)c5)cccn4n3)c2)CC1
The melting point of the first is lower: 150 °C for the first, 216 to 218 °C for the second.

First: CCCCCCCCC1C=CC(/C=C/c2ccc(C(=O)O)o2)=C2N=C3C(=C21)CC(C)(C)CC3(C)C (centres undefined)
Second: CCCCCCCCNC(=O)OCc1ccccc1[N+](=O)[O-]
The melting point of the first is higher: 156 to 158 °C for the first, 70 to 71 °C for the second.

First: CCCCC(O)CN1N=CCCC1c1ccc(Cl)c(Cl)c1 (centres undefined)
Second: CN1C(=O)C(=O)NCC1(CCO)c1ccc(Cl)c(Cl)c1 (centres undefined)
The melting point of the first is lower: 80 to 81 °C for the first, 260 °C for the second.

Compared with Cc1c(O)c(=O)ccn1CCCCO, Cc1ccc(O)c(C(=O)C2CC2)c1 is lower in melting point: 126 to 128 °C for the first, 66 to 68 °C for the second.

Compared with NS(=O)(=O)c1cc(C(=O)O)cc(NCc2ccccc2)c1Oc1ccc(OCc2ccccc2)cc1, O=C(N[C@@H](Cc1ccccc1)C(=O)Oc1ccc([N+](=O)[O-])cc1)OCc1ccccc1 is lower in melting point: 249 to 251 °C for the first, 124 to 126 °C for the second.

First: Oc1cccc2c1cc(C1=NCCN1)n2-c1ccccc1
Second: CS(=O)(=O)c1ccc2c(c1)C1(O)C(C2)SC(=Nc2ccccc2)N1c1ccccc1 (centres undefined)
The melting point of the first is higher: over 270 °C for the first, 75 °C for the second.

Compared with CCCCc1c(Cc2ccc(-c3ccccc3-c3nnn[nH]3)cc2)c(C(=O)O)nn1CCCC, CCCCc1oc2ccccc2c1-c1ncc(-c2ccc3cc(OCc4nnn[nH]4)ccc3c2)o1 is higher in melting point: 108 °C for the first, 238 to 240 °C for the second.

First: COc1cc(C(=O)NS(=O)(=O)c2ccccc2)ccc1Cn1ccc2ccc(N)cc21
Second: COc1ccc2cc(C(=O)[C@H](C)OS(=O)(=O)c3ccccc3)ccc2c1
The melting point of the first is higher: 151 to 155 °C for the first, 74 to 75 °C for the second.

First: CC12CCC3C(CCC4=CC(=CF)CCC43CS)C1CCC2=O (centres undefined)
Second: COc1cc(O)c2c(c1)CCC1C2CCC2(C)C(=O)CCC12 (centres undefined)
The melting point of the first is lower: 118 to 120 °C for the first, 220 to 222 °C for the second.

Compared with CCNC(=O)c1c(Cl)cccc1[Si](C)(C)C1CCCCC1, CC(=CC(=O)c1cccnc1)NCC(O)COc1ccc(NC(=O)NC2CCCCC2)cc1 (centres undefined) is higher in melting point: 111 to 113 °C for the first, 168 °C for the second.

First: O=C(Nc1ccc(Oc2ccccc2)cc1)Nc1sccc1C(=O)O
Second: N#Cc1c(NC(=O)c2ccccc2)ccc2ccccc12
The melting point of the first is lower: 195 to 198 °C for the first, 205 °C for the second.

Compared with CC1(C)C(=O)C(C)(C)c2cc3[nH]c(S(=O)Cc4ccccn4)nc3cc21 (centres undefined), COc1cc2c(c3c1OC(C)(C)C3)C(c1cccc(Br)c1)=NCC2(C)C is lower in melting point: 201 to 203 °C for the first, 127 to 129 °C for the second.

Compared with CCOC(=O)C1=NCC(C)(C)c2cc(OC)c3c(c21)CC(C)(C)O3, CC(C)c1nc2c(c(-c3ccc(F)cc3)c1CO)CCC2(C)C is higher in melting point: 117 to 121 °C for the first, 141 to 143 °C for the second.

First: CCOC(=O)N(Cn1cc(Cl)cnc1=O)c1ccccc1
Second: CCOC(=O)c1nc(CCl)n(-c2ccccc2C(=O)c2ccccn2)n1
The melting point of the first is higher: 174 °C for the first, 129 to 130 °C for the second.

Compared with Cc1nc2n(c(=O)c1CCN1CCC(c3n[nH]c4cc(F)ccc34)CC1)CCS2, O=C1Nc2cc(F)ccc2C1CCCCN1CCN(c2ccccn2)CC1 (centres undefined) is lower in melting point: 208 °C for the first, 136 to 137 °C for the second.

First: COC(=O)c1ccc(Sc2ccc(OCCCCl)cc2)cc1
Second: Cc1ccc(OCCC(CCl)NC(=O)c2c(F)cccc2F)cc1 (centres undefined)
The melting point of the first is lower: 65 to 67 °C for the first, 97 to 99 °C for the second.

First: CCCc1csc2ncc(C(=O)OC)n12
Second: COC(=O)c1cc2c(Br)cccc2n1C
The melting point of the first is higher: 149 to 150 °C for the first, 85 to 86 °C for the second.

Going from COc1cc(N)c(Cl)cc1C(=O)NC1CCN(CCn2c(=O)[nH]c3ccccc3c2=O)CC1OC (centres undefined) to COc1cc2c(N3CCN(Cc4ccccc4)CC3)nc(-c3ccc(Cl)cc3)nc2c(OC)c1OC, the melting point falls from 271 °C to 150 °C.

Compared with CSCOC1CCC2C3CCC4=CC(=O)C=CC4(C)C3(F)C(OC(C)=O)CC12C (centres undefined), COc1ccc(F)cc1C1CC(=O)CC(=O)C1 is higher in melting point: 142 to 143 °C for the first, 160 to 161 °C for the second.

First: N#CCCNC(=O)C1CC(CF)(CF)Oc2ccc([N+](=O)[O-])cc21 (centres undefined)
Second: CCCCCCCOc1ccc(N=Nc2ccc([N+](=O)[O-])cc2)cc1
The melting point of the first is higher: 137 to 138 °C for the first, 82.3 to 83.2 °C for the second.

First: Cc1cc(-c2csc(NC(=N)N)n2)c[nH]1
Second: CCCC(=O)c1c[nH]c2ccsc2c1=O
The melting point of the first is lower: 235 to 237 °C for the first, 244 to 247 °C for the second.

First: O=C(Nc1ccc(-n2nc(C(F)(F)F)cc2C(F)(F)F)cc1)C1CCCCCC1
Second: O=C(/C=C/c1ccc(O)c(OC(F)(F)F)c1)/C=C/c1ccc(O)c(OC(F)(F)F)c1
The melting point of the first is higher: 174 to 175 °C for the first, 103 to 105 °C for the second.

First: CCOC(=O)CCCCc1ccc(OCc2nc(-c3ccccc3)oc2C)cc1
Second: Cc1nn(-c2ccccn2)cc1COc1ccc(COc2ncccc2C#N)cc1
The melting point of the first is lower: 57 to 58 °C for the first, 108 to 109 °C for the second.

Compared with COC(=O)CNc1ccc(F)c(F)c1, Cc1c(CC(=O)O)oc2ccc(Cl)cc12 is higher in melting point: 71 to 73 °C for the first, 149 to 150 °C for the second.

Compared with CC1Cc2c(F)c(F)cc3c(=O)c(C(=O)O)cn(c23)N1C (centres undefined), CCc1nc2c(O)c(CCC(=O)c3ccccc3)c(C(=O)N(C)C)cc2n1C is lower in melting point: 270 to 271 °C for the first, 177 to 180 °C for the second.

Compared with CS(=O)c1nnc(Sc2cc(C(C)(C)C)c(O)c(C(C)(C)C)c2)s1 (centres undefined), Cc1cc(C(C)(C)C)c(O[Si](C)(C)N=C=S)c(C(C)(C)C)c1 is lower in melting point: 162 to 164 °C for the first, 83 to 84 °C for the second.

First: Cc1nn(-c2c(Cl)cc(C(F)(F)F)cc2Cl)nc1Br
Second: O=c1cc(C(F)(F)F)c2ccc(N3CCOCC3)nc2o1
The melting point of the first is lower: 82 °C for the first, 218 to 220 °C for the second.

First: CCCCC(=O)N(Cc1ccc(OC(F)(F)F)c(Cl)c1)c1cc(F)cc(-c2nnn[nH]2)c1
Second: Cc1cc2c(-c3cccc(CCC(=O)O)c3)c(CC(=O)Nc3ccc(F)cc3C(F)(F)F)c(=O)oc2cc1Cl
The melting point of the first is lower: 137 °C for the first, 212 to 214 °C for the second.

First: O=c1c2ccccc2[nH]c2c(OCCCCN(CCO)CCO)cccc12
Second: COC(=O)c1ccccc1COc1ccccc1Br
The melting point of the first is higher: 124 to 126 °C for the first, 73 to 74 °C for the second.

First: CCC(=O)N(C)c1c(C(=O)c2cccc(Cl)c2)[nH]c2cc(Cl)ccc12
Second: COc1ccc(C(=O)c2cccc(C)c2Cl)cc1
The melting point of the first is higher: 194 to 195 °C for the first, 64.7 to 65.8 °C for the second.

First: Cc1nc(-c2ccc(-c3ccccc3S(=O)(=O)Nc3onc(C)c3C)cc2)co1
Second: CCC(C)CCOc1c(-c2ccc(S(C)(=O)=O)cc2)cnn(-c2ccc(F)c(F)c2)c1=O (centres undefined)
The melting point of the first is lower: 90 to 100 °C for the first, 100 to 102 °C for the second.

Compared with COc1ccc2cc(CCC(C)O)ccc2c1 (centres undefined), COC(C=CC=Cc1ccc(OC)cc1)=CC(=O)O is higher in melting point: 94 to 95 °C for the first, 187 °C for the second.

First: CCC(Oc1ccc(CCC(=O)c2ccc(-c3ccc(C(F)(F)F)cc3)s2)cc1)C(=O)O (centres undefined)
Second: O=c1c(-c2cccc(C(F)(F)F)c2)coc2c(O)c(O)ccc12
The melting point of the first is lower: 116 to 117 °C for the first, 225 °C for the second.

Compared with N#Cc1ncn2c1N(C(=O)CN1CCN(Cc3ccccc3)CC1)CC=C2c1cccc(C(F)(F)F)c1, CCOC(=O)Nc1nc(-c2ccccc2)c(-c2nc3ccccc3c(=O)n2-c2ccc(Cl)cc2)s1 is higher in melting point: 167 to 169 °C for the first, over 275 °C for the second.

First: Cc1nc(-c2c(F)cccc2Cl)n[nH]1
Second: COC(=O)c1c(SCc2ccccc2)n[nH]c1C
The melting point of the first is higher: 232 to 233 °C for the first, 109 to 110 °C for the second.

Compared with CNC(=O)c1cc(Br)cc(-c2ccccc2)c1, Cc1ccc(NCC(=O)Nc2ccc(S(N)(=O)=O)cc2Cl)cc1 is higher in melting point: 132 °C for the first, 215 to 216 °C for the second.

First: CC(=O)OCc1ccc(-c2ccccc2-c2nnnn2C(c2ccccc2)(c2ccccc2)c2ccccc2)cc1
Second: CCC1c2ccccc2-c2cc(-c3cccc4c3oc3ccccc34)ccc2N1S(=O)(=O)c1ccc(O)cc1 (centres undefined)
The melting point of the first is lower: 117 to 119 °C for the first, 218 to 220 °C for the second.

First: CC(O)C(C)(C)c1cc(Cn2cncn2)cc(C(C)(C)C#N)c1 (centres undefined)
Second: Cc1cccc(NC(=O)NCC(=O)N(CC(=O)OC(C)(C)C)c2ccc(Cl)cc2)c1
The melting point of the first is lower: 83 to 84 °C for the first, 125 °C for the second.

First: CC(c1oc2ccccc2c(=O)c1-c1cccc(F)c1)n1nc(-c2ccc3cc(O)ccc3c2)c2c(N)ncnc21 (centres undefined)
Second: O=S(=O)(CC1CC1)c1nc(-c2ccccn2)c(-c2ccccn2)[nH]1
The melting point of the first is higher: 281 to 285 °C for the first, 210 to 212 °C for the second.

First: O=C(NC1CCCCC1)C12CC3CC(CC(C3)C1)C2
Second: NC(=O)C1CCc2cc3c(nc21)CCC3 (centres undefined)
The melting point of the first is higher: 199 to 200 °C for the first, 188 °C for the second.

First: Cn1c([N+](=O)[O-])cnc1-c1nnc2ccc(N=C(N)CCO)nn12
Second: O=C(CC1CSCCC1=O)c1ccc(Br)cc1 (centres undefined)
The melting point of the first is higher: 191 to 192 °C for the first, 87.5 to 89.5 °C for the second.

First: CCCN(CCC)C1Cc2cc3c(cc2C1)C(=O)NC3 (centres undefined)
Second: CCN(CC)CC1CN=C(N)O1 (centres undefined)
The melting point of the first is higher: 206 to 208 °C for the first, 90 °C for the second.

In the case of CCCCCCCCCCCCCCCCCCOc1cc(OCCC[PH](=O)OCC)cc(N(CC(=O)O)CC(=O)O)c1 (centres undefined), the melting point is reported as 105 to 108 °C.
